Laboratory results taken from patent US20090317436A1, “COMPUTER DEVICES AND ACCESSORIES” (priority 2006, published 2009).

How the values were obtained:
Type in all cases: cell-based
[1] = system: Staphylococcus aureus NCTC 6571; experiment: Lethal photosensitization of S. aureus by photosensitizer-gold nanoparticle mixtures (Examples 2-8, Table 2), viable counting; conditions: for effect of diluting the gold nanoparticles on killing of S. aureus: 2 nm gold nanoparticles; for enhancement of lethal photosensitization compared with TB in the absence of nanogold: 15 nm nanogold
Method: Gold nanoparticles of approximately 15 nm in diameter (batches NN1 and NN2 above) were mixed with an equal volume of aqueous toluidine blue O (TB) and left at room temperature for 15 minutes. TB was used at a final concentration of 1, 5, 10, 20 or 50 μM.
100 μl of the TB-gold mixture was added to 100 μl of a suspension of Staphylococcus aureus NCTC 6571 in phosphate buffered saline (PBS) (adjusted to an optical density of 0.05), and samples were irradiated with a fluorescent white light (28 W) for 10 minutes. S. aureus+TB only, and S. aureus+PBS, without photosensitizer or nanogold were used as controls. The final concentration of nanogold used was 1×10^15 particles/ml.
After irradiation, the numbers of surviving bacteria were enumerated by viable counting.
The method of Example 2 was repeated using gold nanoparticles of 2 nm diameter (British Biocell International). The final concentration of nanogold used was 4×10^13 particles/ml. TB was used at a final concentration of 10, 20 or 50 μM.
Experiments were performed as for Example 3, with the following modifications: Prior to mixing with the photosensitizer, the gold nanoparticles were either left undiluted, or diluted 1 in 10 or 1 in 100 in sterile, distilled water. The nanoparticles were then added to TB (final concentration 20 μM).
The samples were then illuminated for 30 seconds using a fibre optic white light source (Schott KL200). The surviving bacteria were enumerated by viable counting as before.
Example 4 was repeated using methylene blue (MB; 20 μM) as the photosensitizer.
Example 5 was repeated using 2 nm gold nanoparticles (British Biocell International).
Example 6 was repeated using tin chlorin e6 (SnCe6; 20 μg/ml) as the photosensitizer. The illumination time was 10 minutes. […]

[2] = system: Staphylococcus aureus NCTC 6571; experiment: Lethal photosensitization of S. aureus using a different TBO-tiopronin-gold nanoparticle conjugate (Examples 6-7, Table 4); conditions: white light 30 mins; free TBO control
[3] = system: Staphylococcus aureus NCTC 6571; experiment: Lethal photosensitization of S. aureus by toluidine blue/gold nanoparticle mixture (Example 1), viable counting
Method: Gold nanoparticles (2.0 nm diameter; British Biocell International) in water (15×10^13 particles per ml) were mixed with an equal volume of an aqueous solution of toluidine blue O (40 μM) and left at room temperature for 15 minutes. 100 μl of the gold-TB solution was added to 100 μl of a suspension of Staphylococcus aureus NCTC 6571 in phosphate buffered saline (PBS) and this was irradiated with white light from an 18 W fluorescent white lamp for 10 minutes. Controls consisted of: • (i) TB (final concentration=10 μM) and bacteria, irradiated for the same period of time, • (ii) nanogold (diluted 1:1 with water) and bacteria, irradiated for the same period of time, • (iii) bacteria without TB or nanogold, not irradiated (“control”).
After irradiation, the number of surviving bacteria was determined by viable counting.

[4] = system: Staphylococcus aureus NCTC 6571; experiment: Lethal photosensitization of S. aureus by photosensitizer-gold nanoparticle mixtures (Examples 2-8, Table 2), viable counting; conditions: Example 2
[5] = system: Staphylococcus aureus NCTC 6571; experiment: Lethal photosensitization of S. aureus using TBO-tiopronin-gold nanoparticle conjugate (Examples 2-5, Table 3); conditions: Example 4, any length of time

CN(C)c1ccc2nc3ccc(=[N+](C)C)cc-3sc2c1 [Methylene blue, methylene blue]
effectiveness of combination against Staphylococcus aureus ([1]; 20 mM with 2 nm gold nanoparticles at 4×10^11 to 4×10^13 particles/ml): particularly effective
effectiveness of combination against Staphylococcus aureus ([1]; 20 mM with 15 nm gold nanoparticles at 1×10^13 to 1×10^15 particles/ml): particularly effective
Result (% kill class) ([1]; Example 5, photosensitiser 20 mM, gold nanoparticles 15 nm, 1 × 10^13 particles/ml, fibre optic white light 30 seconds): **** (99-100% kill)
Result (% kill class) ([1]; Example 5, photosensitiser 20 mM, gold nanoparticles 15 nm, 1 × 10^14 particles/ml, fibre optic white light 30 seconds): **** (99-100% kill)
Result (% kill class) ([1]; Example 5, photosensitiser 20 mM, gold nanoparticles 15 nm, 1 × 10^15 particles/ml, fibre optic white light 30 seconds): **** (99-100% kill)
effect of diluting the gold nanoparticles on killing of S. aureus ([1]; Example 6, MB 20 μM): enhanced the killing of S. aureus slightly
Result (% kill class) ([1]; Example 6, photosensitiser 20 mM, gold nanoparticles 2 nm, 4 × 10^11 particles/ml, fibre optic white light 30 seconds): **** (99-100% kill)
Result (% kill class) ([1]; Example 6, photosensitiser 20 mM, gold nanoparticles 2 nm, 4 × 10^12 particles/ml, fibre optic white light 30 seconds): **** (99-100% kill)
Result (% kill class) ([1]; Example 6, photosensitiser 20 mM, gold nanoparticles 2 nm, 4 × 10^13 particles/ml, fibre optic white light 30 seconds): **** (99-100% kill)

C=CC1=C(C)C2=CC3=NC(=C(CC(=O)[O-])C4=NC(=C(C)C4=C([O-])[O-])C=c4[n-]c(c(C)c4CC)=CC1=N2)C(CCC(=O)[O-])C3C.[H+].[Sn+4] (stereo not shown) [Tin chlorine6, tin chlorin e6]
effectiveness of combination against Staphylococcus aureus ([1]; 20 mg/ml with 2 nm gold nanoparticles at 4×10^11 particles/ml): particularly effective
effect of diluting the gold nanoparticles on killing of S. aureus ([1]; Example 7, SnCe6 20 μg/ml, illumination 10 minutes): enhanced the killing of S. aureus
Result (% kill class) ([1]; Example 7, photosensitiser 20 m/ml, gold nanoparticles 2 nm, 4 × 10^11 particles/ml, illumination 10 minutes): *** (95-99% kill)
Result (% kill class) ([1]; Example 7, photosensitiser 20 m/ml, gold nanoparticles 2 nm, 4 × 10^12 particles/ml, illumination 10 minutes): ** (90-95% kill)
Result (% kill class) ([1]; Example 7, photosensitiser 20 m/ml, gold nanoparticles 2 nm, 4 × 10^13 particles/ml, illumination 10 minutes): — (less than 50% kill)

Cc1cc2nc3ccc(N(C)C)cc3[s+]c2cc1N.[Cl-] [Toluidine blue, toluidine blue O]
kills of the organism (in words) [2]: significant kills of the organism only at a concentration of 2.0 μm
% Kill ([3]; 18 W fluorescent white lamp 10 minutes, TB final 10 μM, 2.0 nm gold nanoparticles): 93.7%
kill of the bacterial suspensions ([3]; preliminary experiments, 30 minutes light exposure): total kills
S. aureus (cfu/ml) ([3]; surviving bacteria after 18 W fluorescent white lamp 10 minutes, TB final 10 μM, 2.0 nm gold nanoparticles): 8570000 cfu/ml
Result (% kill class) ([4]; photosensitiser 100 mM, gold nanoparticles 15 nm, 1 × 10^15 particles/ml, fluorescent white light (28 W) 10 minutes): ** (90-95% kill)
enhancement of lethal photosensitization ([4]; with nanogold, TB 10 or 100 μM): little enhancement
effect when irradiated with white light [5]: no effect
effectiveness of combination against Staphylococcus aureus ([1]; 20 mM with 2 nm gold nanoparticles at 4×10^13 particles/ml): particularly effective
enhancement of lethal photosensitization ([1]; 2 nm nanogold particles, 10 μM or 50 μM TB): not when either 10 μM or 50 μM TB was used
enhancement of lethal photosensitization ([1]; 2 nm nanogold particles, 20 μM TB): enhancement of lethal photosensitization was evident
enhancement of lethal photosensitization compared with TB in the absence of nanogold ([1]; TB 1 μM): little enhancement
enhancement of lethal photosensitization compared with TB in the absence of nanogold ([1]; TB 5, 10 and 20 μM): enhancement was evident
enhancement of lethal photosensitization compared with TB in the absence of nanogold ([1]; TB 10 and 20 μM): Enhancement was greatest
effectiveness of combination against Staphylococcus aureus ([1]; 20 to 50 mM with 15 nm gold nanoparticles at 1×10^14 to 1×10^15 particles/ml): particularly effective
Result (% kill class) ([1]; Example 2, photosensitiser 1 mM, gold nanoparticles 15 nm, 1 × 10^15 particles/ml, fluorescent white light (28 W) 10 minutes): — (less than 50% kill)
Result (% kill class) ([1]; Example 2, photosensitiser 5 mM, gold nanoparticles 15 nm, 1 × 10^15 particles/ml, fluorescent white light (28 W) 10 minutes): * (50-90% kill)
Result (% kill class) ([1]; Example 2, photosensitiser 20 mM, gold nanoparticles 15 nm, 1 × 10^15 particles/ml, fluorescent white light (28 W) 10 minutes): **** (99-100% kill)
Result (% kill class) ([1]; Example 2, photosensitiser 50 mM, gold nanoparticles 15 nm, 1 × 10^15 particles/ml, fluorescent white light (28 W) 10 minutes): **** (99-100% kill)
enhancement of lethal photosensitization ([1]; Example 2, with nanogold, TB 20 and 50 μM): enhancement was greatest
Result (% kill class) ([1]; Example 3, photosensitiser 10 mM, gold nanoparticles 2 nm, 4 × 10^13 particles/ml, fluorescent white light (28 W) 10 minutes): * (50-90% kill)
Result (% kill class) ([1]; Example 3, photosensitiser 20 mM, gold nanoparticles 2 nm, 4 × 10^13 particles/ml, fluorescent white light (28 W) 10 minutes): **** (99-100% kill)
Result (% kill class) ([1]; Example 3, photosensitiser 50 mM, gold nanoparticles 2 nm, 4 × 10^13 particles/ml, fluorescent white light (28 W) 10 minutes): * (50-90% kill)
enhancement compared with undiluted nanogold ([1]; Example 4, TB 20 μM, nanoparticles diluted 1 in 10, white light 30 seconds): greater enhancement
Result (% kill class) ([1]; Example 4, photosensitiser 20 mM, gold nanoparticles 15 nm, 1 × 10^14 particles/ml, fibre optic white light 30 seconds): **** (99-100% kill)
Result (% kill class) ([1]; Example 4, photosensitiser 20 mM, gold nanoparticles 15 nm, 1 × 10^15 particles/ml, fibre optic white light 30 seconds): *** (95-99% kill)

nile blue sulphate
effectiveness of combination against Staphylococcus aureus ([1]; 20 to 50 mM with 2 nm gold nanoparticles at 4×10^13 particles/ml): particularly effective
Result (% kill class) ([1]; Example 8, photosensitiser 10 mM, gold nanoparticles 2 nm, 4 × 10^13 particles/ml, illuminated 30 minutes): *** (95-99% kill)
Result (% kill class) ([1]; Example 8, photosensitiser 20 mM, gold nanoparticles 2 nm, 4 × 10^13 particles/ml, illuminated 30 minutes): **** (99-100% kill)
Result (% kill class) ([1]; Example 8, photosensitiser 50 mM, gold nanoparticles 2 nm, 4 × 10^13 particles/ml, illuminated 30 minutes): **** (99-100% kill)
